The target of one assay is T1, dopamine D2 (Rattus norvegicus, UniProt P61169).
T1 construct: P2 fraction (synaptosomal membranes) prepared from male, Wistar rats; from tissue; host or cells: rat (Wistar, male) striatum, P2 synaptosomal membranes
In words: Receptor Binding Assay, dopamine D2 (3H-spiperone, P2 fraction from striatum). Also noted: species or system male, Wistar rats. How it is done: The dopamine D2 and serotonin 5-HT1A binding activity of compounds was determined using a P2 fraction (synaptosomal membranes) prepared from male, Wistar rats. The D2 assay employed a P2 fraction from the striatum, the ligand ^3 H-spiperone at a concentration of 0.05 nM, and […] haloperidol as a blank determinant. […].
(§1) The data from each assay were analyzed by calculating the percent inhibition of the binding of the tritiated ligands by given concentrations of the test compound. KI values, where given, were obtained from the logit analysis of concentration-inhibition curves.

The target in another assay is T2, serotonin 5-HT1A (Rattus norvegicus, UniProt P19327).
T2 construct: P2 fraction (synaptosomal membranes) prepared from male, Wistar rats; from tissue; host or cells: rat (Wistar, male) cerebral cortex, P2 synaptosomal membranes
T2 sequence (P19327 1-422): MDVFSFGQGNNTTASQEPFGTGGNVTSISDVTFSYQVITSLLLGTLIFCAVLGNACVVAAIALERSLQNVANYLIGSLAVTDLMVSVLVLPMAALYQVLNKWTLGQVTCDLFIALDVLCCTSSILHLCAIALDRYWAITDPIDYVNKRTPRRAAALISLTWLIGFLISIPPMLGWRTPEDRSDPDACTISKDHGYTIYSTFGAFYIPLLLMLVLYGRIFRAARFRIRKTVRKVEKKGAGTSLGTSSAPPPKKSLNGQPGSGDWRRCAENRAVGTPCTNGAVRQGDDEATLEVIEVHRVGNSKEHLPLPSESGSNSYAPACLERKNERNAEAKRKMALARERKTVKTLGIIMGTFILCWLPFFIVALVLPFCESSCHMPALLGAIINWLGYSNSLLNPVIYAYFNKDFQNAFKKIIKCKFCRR
In words: Receptor Binding Assay, serotonin 5-HT1A (3H-8-hydroxy-DPAT, P2 fraction from cerebral cortex). As to conditions: known drugs, 3H-8-hydroxy-DPAT 3 nM, pH 7.5, 20 min, 25° C., read-out: KI values for some known drugs, 5-HT1A assay. Also noted: species or system male, Wistar rats. The protocol:
The dopamine D2 and serotonin 5-HT1A binding activity of compounds was determined using a P2 fraction (synaptosomal membranes) prepared from male, Wistar rats.
as §1

Where [1] appears, read: 3H-spiperone 0.05 nM, rat striatum P2 fraction, pH 7.5, 45 min, 37° C., read-out: Receptor Binding, Ki, D-2.

Counter-ions that a name gives are not always drawn. Like-named read-outs stand apart in the source and are kept apart here. Some results are limits rather than exact numbers.

T1 sequence (P61169 whole entry): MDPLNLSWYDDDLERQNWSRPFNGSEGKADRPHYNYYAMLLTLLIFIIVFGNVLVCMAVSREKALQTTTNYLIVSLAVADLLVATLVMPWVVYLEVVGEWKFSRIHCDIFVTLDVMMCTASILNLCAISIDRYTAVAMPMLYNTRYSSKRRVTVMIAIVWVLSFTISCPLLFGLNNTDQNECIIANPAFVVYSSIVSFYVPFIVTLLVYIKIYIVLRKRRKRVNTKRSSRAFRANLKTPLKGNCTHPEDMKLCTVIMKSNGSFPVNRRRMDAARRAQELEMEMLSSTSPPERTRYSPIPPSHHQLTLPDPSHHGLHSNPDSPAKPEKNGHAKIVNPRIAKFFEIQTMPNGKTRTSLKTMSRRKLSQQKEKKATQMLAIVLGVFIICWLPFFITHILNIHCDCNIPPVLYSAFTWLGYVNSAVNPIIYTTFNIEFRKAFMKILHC

The term Ki denotes a dissociation constant, usually derived from enzyme kinetics or from competition with a known ligand. Take `O=C(c1cccc(CN2CCc3c([nH]c4ccccc34)C2)c1)N1CCCCC1` [Compound 9, 1-(3-(2-(1,2,3,4-Tetrahydro-9H-pyrido(3,4-b)indolyl)methyl)-benzoyl)piperidine Monooxalate 0.3 Hydrate]: the Ki at dopamine D2 is 0.374 µM. In the case of `O=C(c1cccc(CN2CCc3c([nH]c4ccccc34)C2)c1)N1CCc2ccccc21` [Compound 11, 1-(3-(2-(1,2,3,4-Tetrahydro-9H-pyrido(3.4-b)indolyl)methyl)benzoyl)indoline Monofumarate], the Ki on dopamine D2 is above 1 µM. With `O=C(c1cccc(CN2CCN3c4ccccc4OCC3C2)c1)N1CCCCC1` (centres unmarked) [Compound 13, 1-(3-(1-(1,2,3,4,4a,5-hexahydropyrazino(1.2-c)-1,4-benzoxazinyl)methyl)benzoyl)pipridine Sesquioxalate], the inhibitory constant (Ki) at dopamine D2 (setting [1]) is above 1 µM. Consider `O=C(c1cccc(CN2CCN3c4ccccc4OCC3C2)c1)N1CCc2ccccc21` (centres unmarked) [Compound 14, 1-(3-(3-(1,2,3,4,4a,5-Hexahydropyrazino(1,2-c)-1,4-benzoxazinyl)methyl)benzoyl)iondoline 1.2 Oxalate], for which the inhibition constant (Ki) at dopamine D2 (setting [1]) is above 1 µM. Turning to `Cc1ccc(N(CC2=NCCN2)c2cccc(O)c2)cc1` [phentolamine], the inhibition constant (Ki) at serotonin 5-HT1A turned out to be 0.059 µM.

Values taken from patent US5512566A, “Tricyclic compounds having affinity for the 5-HT1A receptor” (priority 1993, dated 1996).
